Structures can show the parent of a compound that is named as a salt. Each block holds one compound with its values, some of them ahead of it.
Target: T1, HCV polymerase (Hepatitis C virus genotype 1b, UniProt P26663)
T1 construct: a region encoding NS5B (591 amino acids; J Virol 1991 Mar, 65(3), 1105-13) was amplified by PCR; 6 His (N); made in house; host or cells: Escherichia coli
Assay: biochemical
Details: read-out: HCV polymerase inhibitory activity IC50

T1 sequence (P26663 2420-3010): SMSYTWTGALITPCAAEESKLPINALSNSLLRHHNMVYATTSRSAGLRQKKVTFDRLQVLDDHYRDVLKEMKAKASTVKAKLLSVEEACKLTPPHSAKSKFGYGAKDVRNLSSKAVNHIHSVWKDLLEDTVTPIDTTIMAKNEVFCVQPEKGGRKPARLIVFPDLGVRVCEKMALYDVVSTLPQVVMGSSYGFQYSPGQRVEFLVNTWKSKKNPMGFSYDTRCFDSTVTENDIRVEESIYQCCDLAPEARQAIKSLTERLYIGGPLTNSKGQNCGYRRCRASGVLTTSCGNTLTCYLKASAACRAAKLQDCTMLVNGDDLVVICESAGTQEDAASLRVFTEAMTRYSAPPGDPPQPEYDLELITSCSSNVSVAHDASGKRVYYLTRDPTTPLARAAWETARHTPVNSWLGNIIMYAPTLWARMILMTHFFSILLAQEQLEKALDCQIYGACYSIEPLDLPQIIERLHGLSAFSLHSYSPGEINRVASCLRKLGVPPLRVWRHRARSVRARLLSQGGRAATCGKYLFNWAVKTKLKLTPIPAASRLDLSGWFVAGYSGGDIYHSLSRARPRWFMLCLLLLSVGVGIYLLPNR

IC50: 63 nM
Structure (SMILES): O=C(O)c1ccc2c(c1)nc(-c1ccc(OC[C@@H]3CCCN3c3ccc([N+](=O)[O-])cc3)cc1)n2C1CCCCC1 [Example 203, 1-cyclohexyl-2-{4-[{(2S)-1-(4-nitrophenyl)-2-pyrrolidinyl}-methoxy]phenyl}benzimidazole-5-carboxylic acid]

Structure (SMILES): O=C(O)c1ccc2c(c1)nc(-c1ccc(OCc3sc(C(=O)NCCO)nc3-c3ccc(F)cc3)cc1F)n2C1CCCCC1 [Example 430, 2-{4-[{4-(4-fluorophenyl)-2-{(2-hydroxyethyl)carbamoyl}thiazol-5-yl}methoxy]-2-fluorophenyl}-1-cyclohexylbenzimidazole-5-carboxylic acid hydrochloride]
IC50: 17 nM

Structure (SMILES): O=C(O)c1ccc2c(c1)nc(-c1ccc(Oc3ccc(OCc4ccccc4)cc3)c(F)c1)n2C1CCCCC1 [Example 172, 2-[4-(4-benzyloxyphenoxy)-3-fluorophenyl]-1-cyclohexylbenzimidazole-5-carboxylic acid]
IC50: 100 nM

Structure (SMILES): O=C(O)c1ccc2c(c1)nc(-c1ccc(/C=C/c3ccccc3)cc1)n2C1CCCCC1 [Example 11, 1-cyclohexyl-2-{4-[(E)-2-phenylvinyl]phenyl}-benzimidazole-5-carboxylic acid]
IC50: 530 nM

Structure (SMILES): COCCOc1ccc(-c2ccc(Cl)cc2)c(COc2ccc(-c3nc4cc(C(=O)O)ccc4n3C3CCCCC3)cc2)c1 [Example 344, 2-{4-[2-(4-chlorophenyl)-5-(2-methoxyethoxy)benzyloxy]phenyl}-1-cyclohexylbenzimidazole-5-carboxylic acid hydrochloride]
IC50: 16 nM

Structure (SMILES): CC(C)NC(=O)c1ccc(-c2ccc(Cl)cc2)c(COc2ccc(-c3nc4cc(C(=O)O)ccc4n3C3CCCC3)cc2)c1 [Example 413, 2-{4-[2-(4-chlorophenyl)-5-(isopropylcarbamoyl)benzyloxy]phenyl}-1-cyclopentylbenzimidazole-5-carboxylic acid hydrochloride]
IC50: 26 nM

Structure (SMILES): O=C(O)c1ccc2c(c1)nc(-c1ccc(COc3ccccc3-c3ccccc3)o1)n2C1CCCCC1 [Example 253, 2-[2-(2-biphenylyloxymethyl)-5-furyl]-1-cyclohexylbenzimidazole-5-carboxylic acid]
IC50: 650 nM

Structure (SMILES): O=C(O)c1ccc2c(c1)nc(-c1ccc(OCc3cc(O)ccc3-c3ccc(Cl)cc3)cc1)n2C1CCCCC1 [Example 329, 2-{4-[2-(4-chlorophenyl)-5-hydroxybenzyloxy]phenyl}-1-cyclohexylbenzimidazole-5-carboxylic acid hydrochloride]
IC50: 47 nM

Structure (SMILES): O=C(O)c1ccc2c(c1)nc(-c1ccc(OCc3cc(C(=O)NCc4cccnc4)ccc3-c3ccc(Cl)cc3)cc1)n2C1CCCCC1 [Example 322, 2-{4-[2-(4-chlorophenyl)-5-{N-(3-pyridylmethyl)carbamoyl}-benzyloxy]phenyl}-1-cyclohexylbenzimidazole-5-carboxylic acid dihydrochloride]
IC50: 16 nM

Structure (SMILES): O=C(O)c1ccc2c(c1)nc(-c1ccc(OCc3sc(CN4CCC(O)CC4)nc3-c3ccc(F)cc3)cc1)n2C1CCCCC1 [Example 427, 2-{4-[{4-(4-fluorophenyl)-2-(4-hydroxypiperidin-1-ylmethyl)thiazol-5-yl}methoxy]phenyl}-1-cyclohexylbenzimidazole-5-carboxylic acid dihydrochloride]
IC50: 20 nM

Structure (SMILES): O=C(O)c1ccc2c(c1)nc(-c1ccc(OCc3cc(C(=O)NCCc4ccncc4)ccc3-c3ccc(Cl)cc3)cc1)n2C1CCCCC1 [Example 325, 2-{4-[2-(4-chlorophenyl)-5-(2-pyridin-4-ylethylcarbamoyl)-benzyloxy]phenyl}-1-cyclohexylbenzimidazole-5-carboxylic acid dihydrochloride]
IC50: 19 nM

Structure (SMILES): O=C(O)c1ccc2c(c1)nc(-c1ccc(OCC(c3ccccc3)c3ccccc3)cc1)n2C1CCCCC1 [Example 125, 1-cyclohexyl-2-[4-(2,2-diphenylethoxy)phenyl]benzimidazole-5-carboxylic acid]
IC50: 120 nM

Structure (SMILES): CC(C)NC(=O)c1ccc(-c2ccc(F)c(F)c2)c(COc2ccc(-c3nc4cc(C(=O)O)ccc4n3C3CCCCC3)c(F)c2)c1 [Example 396, 2-{4-[2-(3,4-difluorophenyl)-5-(isopropylcarbamoyl)benzyloxy]-2-fluorophenyl}-1-cyclohexylbenzimidazole-5-carboxylic acid]
IC50: 25 nM

Structure (SMILES): CNC(=O)c1ccc(-c2ccc(Cl)cc2)c(COc2ccc(-c3nc4cc(C(=O)O)ccc4n3C3CCCCC3)cc2)c1 [Example 248, 2-{4-[2-(4-chlorophenyl)-5-methylcarbamoylbenzyloxy]phenyl}-1-cyclohexylbenzimidazole-5-carboxylate hydrochloride]
IC50: 12 nM

Structure (SMILES): O=C(O)c1ccc2c(c1)nc(-c1ccc(OCc3cc(C(=O)NC4CCCCC4)ccc3-c3ccc(Cl)cc3)cc1)n2C1CCCCC1 [Example 324, 2-{4-[2-(4-chlorophenyl)-5-(cyclohexylcarbamoyl)benzyloxy]-phenyl}-1-cyclohexylbenzimidazole-5-carboxylic acid hydrochloride]
IC50: 27 nM

Structure (SMILES): O=C(O)CCc1ccc(-c2ccc(Cl)cc2COc2ccc(-c3nc4cc(C(=O)O)ccc4n3C3CCCCC3)cc2)cc1 [Example 293, 2-{4-[2-{4-(2-carboxyethyl)phenyl}-5-chlorobenzyloxy]phenyl}-1-cyclohexylbenzimidazole-5-carboxylic acid]
IC50: 34 nM

Structure (SMILES): CCS(=O)(=O)N(C)c1ccc(-c2ccc(Cl)cc2)c(COc2ccc(-c3nc4cc(C(=O)O)ccc4n3C3CCCCC3)c(F)c2)c1 [Example 464, 2-[4-{2-(4-chlorophenyl)-5-[N-(ethylsulfonyl)-N-methylamino]-benzyloxy}-2-fluorophenyl]-1-cyclohexylbenzimidazole-5-carboxylic acid hydrochloride]
IC50: 30 nM

Structure (SMILES): O=C(O)c1ccc2c(c1)nc(-c1ccc(OCc3ccccc3)cc1)n2C1CCCCCC1 [Example 122, 2-(4-benzyloxyphenyl)-1-cycloheptylbenzimidazole-5-carboxylic acid]
IC50: 510 nM

Structure (SMILES): CCOC(=O)c1ccn2c(C3CCCCC3)c(-c3ccc(OCc4ccccc4)cc3)nc2c1 [Example 601, ethyl 2-(4-benzyloxyphenyl)-3-cyclohexylimidazo-[1,2-a]pyridine-7-carboxylate]
IC50: 320 nM

Structure (SMILES): O=C(O)c1ccc(-c2ccc(Cl)cc2COc2ccc(-c3nc4cc(C(=O)O)ccc4n3C3CCCCC3)cc2)cc1 [Example 184, 2-{4-[2-(4-carboxyphenyl)-5-chlorobenzyloxy]phenyl}-1-cyclohexylbenzimidazole-5-carboxylic acid]
IC50: 18 nM

Structure (SMILES): O=C(O)c1ccc2c(c1)nc(-c1ccc(OCc3cccc(Cl)c3)cc1)n2C1CCCC1 [Example 55, 2-[4-(3-chlorobenzyloxy)phenyl]-1-cyclopentylbenzimidazole-5-carboxylic acid]
IC50: 360 nM

Structure (SMILES): O=C(O)c1ccc2c(c1)nc(-c1ccc(OCc3cc(NC(=O)N4CCOCC4)ccc3-c3ccc(Cl)cc3)cc1F)n2C1CCCCC1 [Example 392, 2-{4-[2-(4-chlorophenyl)-5-{(morpholinocarbonyl)amino}benzyloxy]-2-fluorophenyl}-1-cyclohexylbenzimidazole-5-carboxylic acid hydrochloride]
IC50: 14 nM

Structure (SMILES): O=C(O)c1ccc2c(c1)nc(-c1ccc(OCc3ccccc3-c3ccc(C(F)(F)F)cc3)cc1)n2C1CCCCC1 [Example 117, 1-cyclohexyl-2-{4-[2-(4-trifluoromethylphenyl)benzyloxy]-phenyl}benzimidazole-5-carboxylic acid]
IC50: 75 nM

Structure (SMILES): O=C(O)c1ccc2c(c1)nc(-c1ccc(OCCc3cccc(OCc4ccccc4)c3)cc1)n2C1CCCCC1 [Example 139, 2-{4-[2-(3-benzyloxyphenyl)ethoxy]phenyl}-1-cyclohexylbenzimidazole-5-carboxylic acid]
IC50: 260 nM

Structure (SMILES): O=C(O)c1ccc2c(c1)nc(-c1ccc(OCc3ccccc3)cc1)n2C1CCCC1 [Example 12, 2-(4-benzyloxyphenyl)-1-cyclopentylbenzimidazole-5-carboxylic acid]
IC50: 600 nM

Structure (SMILES): CCCCNC(=O)c1ccc(-c2ccc(Cl)cc2)c(COc2ccc(-c3nc4cc(C(=O)O)ccc4n3C3CCCCC3)c(F)c2)c1 [Example 388, 2-{4-[5-(butylcarbamoyl)-2-(4-chlorophenyl)benzyloxy]-2-fluorophenyl}-1-cyclohexylbenzimidazole-5-carboxylic acid hydrochloride]
IC50: 20 nM

Structure (SMILES): O=C(O)c1ccc2c(c1)nc(-c1ccc(Oc3ccc(OCc4ccccc4)cc3)cc1C(F)(F)F)n2C1CCCCC1 [Example 150, 2-{4-(4-benzyloxyphenoxy)-2-trifluoromethylphenyl}-1-cyclohexylbenzimidazole-5-carboxylic acid]
IC50: 240 nM

Structure (SMILES): Cc1nc(COc2ccc(-c3nc4cc(C(=O)O)ccc4n3C3CCCCC3)cc2)c(-c2ccc(Cl)cc2)o1 [Example 199, 1-cyclohexyl-2-{4-[{2-methyl-5-(4-chlorophenyl)-4-oxazolyl}-methoxy]phenyl}benzimidazole-5-carboxylic acid]
IC50: 110 nM

Structure (SMILES): COc1cc(OCc2ccccc2)ccc1-c1nc2cc(C(=O)O)ccc2n1C1CCCCC1 [Example 179, 2-(4-benzyloxy-2-methoxyphenyl)-1-cyclohexylbenzimidazole-5-carboxylic acid]
IC50: 630 nM

Structure (SMILES): CN(C)C(=O)c1ccc(-c2cccc(F)c2)c(COc2ccc(-c3nc4cc(C(=O)O)ccc4n3C3CCCCC3)cc2)c1 [Example 361, 2-{4-[5-(dimethylcarbamoyl)-2-(3-fluorophenyl)benzyloxy]phenyl}-1-cyclohexylbenzimidazole-5-carboxylic acid hydrochloride]
IC50: 28 nM

Structure (SMILES): O=C(O)c1ccc2c(c1)nc(-c1ccc(Oc3cc(OCc4ccccc4)ncn3)cc1)n2C1CCCCC1 [Example 238, 2-[4-(4-benzyloxy-6-pyrimidinyloxy)phenyl]-1-cyclohexylbenzimidazole-5-carboxylic acid]
IC50: 190 nM

Structure (SMILES): O=C(O)c1ccc2c(c1)nc(-c1ccc(OCc3cc(C(=O)NC4CC4)ccc3-c3ccc(Cl)cc3)cc1F)n2C1CCCCC1 [Example 377, 2-{4-[2-(4-chlorophenyl)-5-(cyclopropylcarbamoyl)benzyloxy]-2-fluorophenyl}-1-cyclohexylbenzimidazole-5-carboxylic acid hydrochloride]
IC50: 12 nM

Reference: US20040082635A1, “Fused cyclic compounds and medicinal use thereof” (priority 2001, published 2004)
